This assay has as its system BDF1 mice, B16 melanoma ip, median survival T/C. Kind of assay: NCI In Vivo Anticancer Drug Screen. Data for tumor model B16 Melanoma (intraperitoneal) in B6D2F1 (BDF1) mice. To be noted: endpoint: median survival time, higher = longer survival. A digest of the protocol:
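Each result divides a survival or tumor-size measurement in the compound-treated group by the same measurement in the vehicle group.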

The mark [1] stands for this setting: dose: 50.0 mg/kg/injection, schedule: Q04DX003 (ip), vehicle: Klucel (hydroxypropylcellulose) (HPC).
Setting [2] is: dose: 100.0 mg/kg/injection, schedule: Q04DX003 (ip), vehicle: Klucel (hydroxypropylcellulose) (HPC).
[3] abbreviates: dose: 200.0 mg/kg/injection, schedule: Q04DX003 (ip), vehicle: Klucel (hydroxypropylcellulose) (HPC).
[4] abbreviates: dose: 100.0 mg/kg/injection, schedule: Q01DX009 (ip), vehicle: Klucel (hydroxypropylcellulose) (HPC).
[5] abbreviates: dose: 200.0 mg/kg/injection, schedule: Q01DX009 (ip), vehicle: Klucel (hydroxypropylcellulose) (HPC).

Inconclusive results and toxic doses are left out.

In the case of `S=c1nc[nH]c2nc[nH]c12`, the T/C is 120 % of control (dose: 2.5 mg/kg/injection, schedule: Q01DX009 (ip), vehicle: other); 107 % of control (dose: 2.5 mg/kg/injection, schedule: Q01DX009 (ip), vehicle: saline); 112 % of control (dose: 5.0 mg/kg/injection, schedule: Q01DX009 (ip), vehicle: other); 110 % of control (dose: 5.0 mg/kg/injection, schedule: Q01DX009 (ip), vehicle: saline); 93 % of control (dose: 7.5 mg/kg/injection, schedule: Q01DX009 (ip), vehicle: Klucel (hydroxypropylcellulose) (HPC)); 94 % of control (dose: 9.38 mg/kg/injection, schedule: Q01DX009 (ip), vehicle: alkali diluted with water). Besides, the T/C (dose: 10.0 mg/kg/injection, schedule: Q01DX009 (ip), vehicle: saline) is 110 % of control; the T/C (dose: 11.3 mg/kg/injection, schedule: Q01DX009 (ip), vehicle: other) was 90 % of control; the T/C (dose: 12.5 mg/kg/injection, schedule: Q01DX009 (ip), vehicle: Klucel (hydroxypropylcellulose) (HPC)) is 110 % of control; the T/C (dose: 18.8 mg/kg/injection, schedule: Q01DX009 (ip), vehicle: alkali diluted with water) was 100 % of control; the T/C (dose: 20.0 mg/kg/injection, schedule: Q01DX009 (ip), vehicle: saline) was 160 % of control; the T/C (dose: 22.5 mg/kg/injection, schedule: Q01DX009 (ip), vehicle: other) is 95 % of control. The T/C is, setting by setting: (dose: 25.0 mg/kg/injection, schedule: Q01DX009 (ip), vehicle: acid diluted with saline) 87 % of control; (dose: 30.0 mg/kg/injection, schedule: Q01DX009 (ip), vehicle: saline) 105 % of control; (dose: 37.5 mg/kg/injection, schedule: Q01DX009 (ip), vehicle: alkali diluted with water) 88 % of control; (dose: 40.0 mg/kg/injection, schedule: Q01DX009 (ip), vehicle: saline) 110 % of control; (dose: 75.0 mg/kg/injection, schedule: Q01DX009 (ip), vehicle: alkali diluted with water) 84 % of control; (dose: 78.0 mg/kg/injection, schedule: Q04DX003 (ip), vehicle: alkali diluted with water) 96 % of control. Besides, the T/C (dose: 120.0 mg/kg/injection, schedule: Q04DX003 (ip), vehicle: alkali diluted with water) is 98 % of control; the T/C (dose: 150.0 mg/kg/injection, schedule: Q01DX009 (ip), vehicle: alkali diluted with water) was 46 % of control; the T/C (dose: 200.0 mg/kg/injection, schedule: Q04DX003 (ip), vehicle: alkali diluted with water) is 84 % of control; the T/C (dose: 333.0 mg/kg/injection, schedule: Q04DX003 (ip), vehicle: alkali diluted with water) was 81 % of control.
For `C1CC[N-]CC1.C1CC[N-]CC1.O=C(O)C(=O)O.[Pt+2]`, the T/C runs as follows: (dose: 6.25 mg/kg/injection, schedule: Q04DX003 (ip), vehicle: Klucel (hydroxypropylcellulose) (HPC)) 100 % of control; (dose: 12.5 mg/kg/injection, schedule: Q04DX003 (ip), vehicle: Klucel (hydroxypropylcellulose) (HPC)) 120 % of control; (dose: 25.0 mg/kg/injection, schedule: Q04DX003 (ip), vehicle: Klucel (hydroxypropylcellulose) (HPC)) 119 % of control; under setting [1], 115 % of control; under setting [2], 113 % of control.
As to `COc1cccc(CN2CCCNCC2)c1`, the T/C (dose: 6.25 mg/kg/injection, schedule: Q01DX009 (ip), vehicle: water) was 102 % of control; the T/C (dose: 12.5 mg/kg/injection, schedule: Q01DX009 (ip), vehicle: water) was 115 % of control; the T/C (dose: 25.0 mg/kg/injection, schedule: Q01DX009 (ip), vehicle: water) is 114 % of control; the T/C (dose: 50.0 mg/kg/injection, schedule: Q01DX009 (ip), vehicle: water) is 100 % of control.
On to `CCN(CC)CCOc1ccc2c(c1)C(=O)c1cc(OCCN(CC)CC)ccc1-2`, for which the T/C runs as follows: (dose: 13.0 mg/kg/injection, schedule: Q01DX009 (ip), vehicle: saline) 124 % of control; (dose: 21.6 mg/kg/injection, schedule: Q01DX009 (ip), vehicle: saline) 123 % of control; (dose: 100.0 mg/kg/injection, schedule: Q01DX009 (ip), vehicle: saline) 124 % of control.
With `CCCCNC(=O)Nc1ccccc1CC`, the T/C is 110 % of control under setting [2]; 103 % of control under setting [3]; 96 % of control (dose: 400.0 mg/kg/injection, schedule: Q04DX003 (ip), vehicle: Klucel (hydroxypropylcellulose) (HPC)).
In the case of `CCCc1ccc(OC)cc1`, the T/C runs as follows: (dose: 25.0 mg/kg/injection, schedule: Q01DX009 (ip), vehicle: saline with Tween-80) 97 % of control; (dose: 50.0 mg/kg/injection, schedule: Q01DX009 (ip), vehicle: saline with Tween-80) 105 % of control; (dose: 100.0 mg/kg/injection, schedule: Q01DX009 (ip), vehicle: saline with Tween-80) 90 % of control.
Take `Cc1ccc(S(=O)(=O)OCCN(CCOS(=O)(=O)c2ccc(C)cc2)c2ccc(F)cc2)cc1`: the T/C by setting is: (dose: 0.17 mg/kg/injection, schedule: Q01DX009 (ip), vehicle: saline) 115 % of control; (dose: 0.35 mg/kg/injection, schedule: Q01DX009 (ip), vehicle: saline) 108 % of control; (dose: 0.7 mg/kg/injection, schedule: Q01DX009 (ip), vehicle: saline) 106 % of control; (dose: 1.5 mg/kg/injection, schedule: Q01DX009 (ip), vehicle: saline) 115 % of control; (dose: 3.13 mg/kg/injection, schedule: Q01DX009 (ip), vehicle: saline) 119 % of control; (dose: 6.25 mg/kg/injection, schedule: Q01DX009 (ip), vehicle: saline) 117 % of control. Moreover, the T/C is 88 % of control (dose: 12.5 mg/kg/injection, schedule: Q01DX009 (ip), vehicle: saline + alcohol); 110 % of control (dose: 50.0 mg/kg/injection, schedule: Q01DX009 (ip), vehicle: saline + alcohol); 154 % of control (dose: 50.0 mg/kg/injection, schedule: Q01DX009 (ip), vehicle: saline); 104 % of control (dose: 100.0 mg/kg/injection, schedule: Q01DX009 (ip), vehicle: saline + alcohol).
Turning to `NCCCC(N)(C(=O)O)C(F)F` (configuration not stated), the T/C runs as follows: (dose: 50.0 mg/kg/injection, schedule: Q01DX009 (ip), vehicle: distilled water + alcohol) 94 % of control; (dose: 100.0 mg/kg/injection, schedule: Q01DX009 (ip), vehicle: distilled water + alcohol) 101 % of control; (dose: 200.0 mg/kg/injection, schedule: Q01DX009 (ip), vehicle: distilled water + alcohol) 97 % of control; (dose: 400.0 mg/kg/injection, schedule: Q01DX009 (ip), vehicle: distilled water + alcohol) 100 % of control; (dose: 800.0 mg/kg/injection, schedule: Q01DX009 (ip), vehicle: distilled water + alcohol) 110 % of control.
`CCC/C(=C\C(=O)O)CC`: the T/C is 108 % of control under setting [4]; 95 % of control under setting [2]; 100 % of control under setting [5]; 95 % of control under setting [3]; 97 % of control (dose: 400.0 mg/kg/injection, schedule: Q01DX009 (ip), vehicle: Klucel (hydroxypropylcellulose) (HPC)).
With `CCC(C)c1ccccc1OC(=O)Nc1ccc(OC)cc1` (configuration not stated), the T/C is, setting by setting: (dose: 50.0 mg/kg/injection, schedule: Q01DX009 (ip), vehicle: Klucel (hydroxypropylcellulose) (HPC)) 100 % of control; under setting [1], 106 % of control; under setting [4], 103 % of control; under setting [2], 106 % of control; under setting [5], 100 % of control; under setting [3], 103 % of control.
`CC(=O)[C@@]1(O)CC[C@H]2[C@@H]3C[C@H](C)C4=CC(=O)C=C[C@]4(C)[C@@]3(F)[C@@H](O)C[C@@]21C`: the T/C by setting is: (dose: 25.0 mg/kg/injection, schedule: Q01DX009 (sc), vehicle: steriod suspending solution) 102 % of control; (dose: 50.0 mg/kg/injection, schedule: Q01DX009 (sc), vehicle: steriod suspending solution) 107 % of control.
`COC1=C2CC(C)CC(OC)C(O)C(C)/C=C(\C)C(OC(N)=O)C(OC)/C=C\C=C(/C)C(=O)NC(=C(/C=N/N3CCOCC3)C1=O)C2=O` (configuration not stated): the T/C runs as follows: (dose: 12.5 mg/kg/injection, schedule: Q01DX005 (ip), vehicle: other) 106 % of control; (dose: 25.0 mg/kg/injection, schedule: Q01DX005 (ip), vehicle: other) 97 % of control; (dose: 100.0 mg/kg/injection, schedule: Q01DX005 (ip), vehicle: other) 106 % of control; (dose: 200.0 mg/kg/injection, schedule: Q01DX005 (ip), vehicle: other) 89 % of control.
